Results from article PMC12543283, “TastepepAI: An artificial intelligence platform for taste peptide de novo design” (PLOS Computational Biology, 2025).
Values joined by “and” are separate entries in the source; they are usually repeats but may differ in a detail not shown here. Equal values may be shown once. Ends that are not written are not given here.

Tests used:
[1] = Electronic tongue analysis (Taste-Sensing System SA 402B); parameters: unit not given here; conditions: reference solution 30 mM KCl + 0.3 mM tartaric acid as baseline, first measurement excluded; for Umami: sensor AAE; for Umami / Bitter / Sweet: detection threshold 0, room temperature; for Umami / Bitter / Sour / Salty: four replicates; for Sour: detection threshold -13, room temperature; for Salty: detection threshold -6, room temperature; for Sweet: measured five times
Procedure, shortened: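 Room-temperature electronic-tongue readings with five taste probes, calibrated against a reference of 30 mM KCl and 0.3 mM tartaric acid. Samples at 0.1 mg/mL and 1.0 mg/mL were measured four times, sweetness five times, and the first run was dropped. Detection cut-offs were sour −13, salty −6, others 0.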

[2] = test system: human bronchial epithelial cells (BEAS-2B)
[3] = test system: human embryonic kidney cells (HEK293T)
Description: (§1) The cytotoxicity of 73 synthetic peptides was evaluated using four human cell lines: human pancreatic ductal epithelial cells (HPNE), human embryonic kidney cells (HEK293T), human umbilical vein endothelial cells (HUVEC), and human bronchial epithelial cells (BEAS-2B). When cell density reached 70% confluence, the complete culture medium was replaced with serum-free maintenance medium, and peptides were added at a final concentration of 100 μM for 36 h. Control groups received only serum-free maintenance medium without peptides. Cell proliferation was assessed using the CCK-8 assay kit (Solarbio, CA1210) according to the manufacturer’s instructions.

[4] = test system: human pancreatic ductal epithelial cells (HPNE)
[5] = test system: human umbilical vein endothelial cells (HUVEC)
Description: as §1

Substance | Umami ([1]; peptide 0.1 mg/mL) | Umami ([1]; peptide 1 mg/mL) | Bitter ([1]; sensor C00, peptide 0.1 mg/mL) | Bitter ([1]; sensor C00, peptide 1 mg/mL) | Sour ([1]; sensor CA0, peptide 0.1 mg/mL) | Sour ([1]; sensor CA0, peptide 1 mg/mL) | Salty ([1]; sensor CT0, peptide 0.1 mg/mL) | Salty ([1]; sensor CT0, peptide 1 mg/mL) | Sweet ([1]; sensor GL1, peptide 0.1 mg/mL) | Sweet ([1]; sensor GL1, peptide 1 mg/mL) | Average cell viability, BEAS-2B [2] | Cell viability, BEAS-2B, Data1 [2] | Cell viability, BEAS-2B, Data2 [2] | Cell viability, BEAS-2B, Data3 [2] | Average cell viability, HEK293T [3] | Cell viability, HEK293T, Data1 [3] | Cell viability, HEK293T, Data2 [3] | Cell viability, HEK293T, Data3 [3] | Average cell viability, HPNE [4] | Cell viability, HPNE, Data1 [4] | also measured
LWGPVT [TaPep72] | 2.15 | -4.42 | 7.25 | 3.83 | -4.62 | 11.06 | -19.66 | 7.83 | 7.58 | -5.31 | 100.50 | 118.74 | 92.32 | 90.43 | 100.76 | 102.49 | 95.02 | 104.76 | 101.26 | 115.31 | Cell viability, HPNE, Data2 [4]: 97.84; Cell viability, HPNE, Data3 [4]: 90.65; Average cell viability, HUVEC [5]: 99.47; Cell viability, HUVEC, Data1 [5]: 107.29; Cell viability, HUVEC, Data2 [5]: 101.62; Cell viability, HUVEC, Data3 [5]: 89.49
NGDDEEG [TaPep7] | 1.28 | -5.11 | 7.41 | bitterness suppression and -0.45 | -2.86 | 11.92 | -21.22 | 9.19 | 6.98 | -6.18 | 102.56 | 94.72 | 111.17 | 101.79 | 95.11 | 96.15 | 94.73 | 94.45 | 99.30 | 92.35 | Cell viability, HPNE, Data2 [4]: 93.04; Cell viability, HPNE, Data3 [4]: 112.51; Average cell viability, HUVEC [5]: 105.24; Cell viability, HUVEC, Data1 [5]: 113.68; Cell viability, HUVEC, Data2 [5]: 110.16; Cell viability, HUVEC, Data3 [5]: 91.88
NNDDEES [TaPep50] | 2.11 | -3.90 | 7.18 | 4.27 | -4.45 | 9.63 | -22.53 | 3.54 | 7.42 | -3.07 | 104.39 | 104.29 | 103.89 | 104.99 | 101.39 | 105.62 | 98.99 | 99.56 | 98.30 | 106.02 | Cell viability, HPNE, Data2 [4]: 107.52; Cell viability, HPNE, Data3 [4]: 81.36; Average cell viability, HUVEC [5]: 105.59; Cell viability, HUVEC, Data1 [5]: 101.94; Cell viability, HUVEC, Data2 [5]: 108.73; Cell viability, HUVEC, Data3 [5]: 106.09
PPLENT [TaPep39] | 0.99 | -5.89 | 7.69 | 2.99 | -1.65 | 15.66 | -18.68 | 12.96 | 6.53 | -7.82 | 115.22 | 118.05 | 113.86 | 113.76 | 100.06 | 96.81 | 97.19 | 106.18 | 99.87 | 95.44 | Cell viability, HPNE, Data2 [4]: 90.95; Cell viability, HPNE, Data3 [4]: 113.21; Average cell viability, HUVEC [5]: 107.56; Cell viability, HUVEC, Data1 [5]: 101.22; Cell viability, HUVEC, Data2 [5]: 113.36; Cell viability, HUVEC, Data3 [5]: 108.09
PTELESD [TaPep41] | 1.88 | -3.94 | 7.34 | 3.91 | -3.84 | 9.16 | -20.79 | 2.54 | 8.41 | -8.94 | 110.80 | 117.85 | 114.36 | 100.20 | 106.18 | 94.54 | 110.54 | 113.47 | 95.94 | 86.16 | Cell viability, HPNE, Data2 [4]: 113.91; Cell viability, HPNE, Data3 [4]: 87.75; Average cell viability, HUVEC [5]: 103.09; Cell viability, HUVEC, Data1 [5]: 108.17; Cell viability, HUVEC, Data2 [5]: 102.98; Cell viability, HUVEC, Data3 [5]: 98.11
SAANT [TaPep31] | 1.69 | -4.82 | 7.84 | 2.76 | -3.49 | 12.70 | -19.57 | 12.57 | 8.41 | -5.90 | 110.70 | 118.64 | 100.10 | 113.36 | 99.34 | 102.02 | 100.41 | 95.58 | 100.40 | 105.82 | Cell viability, HPNE, Data2 [4]: 112.81; Cell viability, HPNE, Data3 [4]: 82.56; Average cell viability, HUVEC [5]: 99.39; Cell viability, HUVEC, Data1 [5]: 91.56; Cell viability, HUVEC, Data2 [5]: 100.67; Cell viability, HUVEC, Data3 [5]: 105.93
SEGIQ [TaPep70] | 1.63 | -4.00 | 7.38 | 3.77 | -3.33 | 10.04 | -20.29 | 7.83 | 6.55 | -3.62 | 104.32 | 109.87 | 102.79 | 100.30 | 99.37 | 100.88 | 96.25 | 100.98 | 105.19 | 112.61 | Cell viability, HPNE, Data2 [4]: 102.83; Cell viability, HPNE, Data3 [4]: 100.13; Average cell viability, HUVEC [5]: 107.56; Cell viability, HUVEC, Data1 [5]: 113.68; Cell viability, HUVEC, Data2 [5]: 110.32; Cell viability, HUVEC, Data3 [5]: 98.67
SKKEV [TaPep65] | 1.85 | -4.04 | 7.27 | 4.02 | -3.95 | 10.48 | -17.33 | 11.34 | 2.66 | -3.79 | 100.70 | 99.80 | 89.83 | 112.46 | 97.48 | 94.54 | 99.27 | 98.61 | 94.98 | 94.04 | Cell viability, HPNE, Data2 [4]: 105.12; Cell viability, HPNE, Data3 [4]: 85.76; Average cell viability, HUVEC [5]: 96.89; Cell viability, HUVEC, Data1 [5]: 105.14; Cell viability, HUVEC, Data2 [5]: 94.76; Cell viability, HUVEC, Data3 [5]: 90.77
SLEYEFK [TaPep38] | 2.66 | -3.92 | 7.67 | 3.12 | -5.92 | 9.17 | -19.89 | 10.85 | 7.68 | -5.11 | 103.09 | 93.12 | 112.36 | 103.79 | 98.90 | 94.16 | 101.26 | 101.26 | 96.57 | 86.36 | Cell viability, HPNE, Data2 [4]: 94.14; Cell viability, HPNE, Data3 [4]: 109.22; Average cell viability, HUVEC [5]: 107.74; Cell viability, HUVEC, Data1 [5]: 112.64; Cell viability, HUVEC, Data2 [5]: 110.32; Cell viability, HUVEC, Data3 [5]: 100.27
